The values that follow come from patent publication US10815197B2, “N-sulfonyl benzamides as voltage-gated sodium channel inhibitors” (SHANGHAI HAIYAN PHARMACEUTICAL TECHNOLOGY CO., LTD., priority 2016, dated 2020).

Entries after “also recorded” stand apart in the source; their conditions may differ.

The target in one assay is T1, hNav1.5 (Homo sapiens, UniProt Q14524).
T1 construct: host or cells: HEK
The experiment in a line: Manual patch clamp experiment hNav1.5 (HEK-hNav1.5 stable cell line). The format is cell-based. Conditions: read-out: Nav1.5(IC50/nM). The source says:
Assay 1: Manual Patch Clamp Experiment of Sodium Ion (hNav1.7, hNav1.5 and hNaV1.8) and Calcium Ion (hCav3.2) Channels
hNav1.7, hNav1.5 Manual Patch Clamp Experiment:
Patch voltage clamp electrophysiology allows for the direct measurement and quantification of current block of voltage-gated sodium channels (NaV's), and allows the determination of the time and voltage-dependence of block which has been interpreted as differential binding to the resting, open and inactivated states of the sodium channel to reflect the compound's inhibitory or activating effects (Hille, B., Journal of General Physiology (1977), 69: 497-515).
Representative compounds of the present invention were subject to a manual patch clamp experiment and the purpose of this study was to test the effect of compounds on this ion channel current on a stable cell line transfected with a specific ion channel using a manual patch clamp method. The used stable cell lines CHO-hNav1.7 and HEK-hNav1.5 were from Genionics and WuXi Apptec (Shanghai) respectively.
Manual patch clamp experimental program is as follows: […]
The time intervals of these two voltage stimulation programs were 10 s. The inhibitory effect of the compound was calculated by the change of the current before and after dosing, the IC50 value was fitted by the Hill equation.

The test system of assay [1] is SNL-induced cold allodynia in rats. The experiment in a line: Cold allodynia in SNL (spinal nerve ligation) rats. The format is in vivo, rat. The source says:
Assay 3: Cold Allodynia in SNL
The experimental animals were male Sprague-Dawley rats, weighing 140-150 g at the beginning of the experiment. The animals were purchased from Slack company, and food and water were supplied ad lib after purchase. Rats were group-housed, four rats/cage, and individually identified by marking on the tail.
Test Compound and Grouping:
Vehicle: 5% dimethylacetamide(Sinopharm Technology), 5% solutol (Sigma) and 90% saline
Positive control: Pregabalin;
Test compound: compound Z-164;
The positive control and solvent composition of the test compound are 5% dimethylacetamide, 5% solutol and 90% saline.
30 mg/kg Compound Z-164:1.23 mL of dimethylacetamide was added to 148.11 mg of compound Z-164, stirred well until fully dissolved, and then 1.23 mL solutol was added and mixed well. Final volume was made up with 90% saline to 21.44 mL and mixed well before oral administration.
30 mg/kg Pregabalin: 1.08 mL of dimethylacetamide was added to 129.48 mg of Pregabalin, stirred well until fully dissolved, and then 1.08 mL solutol was added and mixed well. Final volume was made up with 90% saline to 21.58 mL and mixed well before oral administration.
1.1. Spinal Nerve Ligation (SNL) model • Surgical procedures are performed aseptically. • The surgical instruments (scissors, tweezers, scalpels, surgical cotton, sutures, retractor) are sterilized prior to surgery. • Animals were anesthetized with pentobarbital (50 mg/kg, i.p.). A toe pinch was used to ensure that the animals were fully anesthetized prior to surgery. Put ophthalmic ointment in the animal's eyes to prevent the corneas from drying out. • The fur on the surgical area of animal's lower body was shaved, and the skin of the surgical area was swabbed with 3 rounds of Betadine and 70% ethanol. The skin was allowed to dry before surgery. • A longitudinal incision will be made by scalpel at the lower lumbar and sacral levels, exposing the paraspinal muscles on the left side. The retractor was used to separate the muscles and tissues to expose the vertebra. • The left L5 and L6 spinal nerves will be isolated and tightly ligated with 6-0 silk thread. • The wound was closed with sutures. • The surgical instruments were cleaned, and sterilized by using a glass bead sterilizer. • Animals were placed on the electric blanket after surgery. Inject 5 ml sterile saline to prevent dehydration. The animals were returned to their home cage after fully awake (walking around).
1.2. Baseline Test of Cold Allodynic and Grouping
The baseline of cold allodynic was measured in rats two days before dosing. Use a pipette to apply 100 μl of acetone to the animal's lateral hind paw skin and the time of slapping, flinching, lifting, licking of the affected paw were recorded for one minute. Acetone was applied twice in total and the two applications were 10 minutes apart. The sum of the two times was recorded as cold allodynic time in rats. The rats were grouped randomized according to the results of baseline test of cold allodynic the day before dosing.
1.3. Cold Allodynic Testing
A pipette was used to apply 100 μl of acetone to the animal's lateral hind paw skin two hours after dosing and the time of slapping, flinching, lifting, licking of the affected paw were recorded for one minute. Acetone was applied twice and the two applications were 10 minutes apart. The sum of the two times was recorded as cold allodynic time in rats.
Oral administration was performed two hours before cold allodynic testing.
1.5. Data Collection and Analysis
Data were collected with Excel and analyzed with Prism.

Where [2] appears, read: 30 mg/kg p.o., two hours after dosing.

T1 sequence (Q14524 whole entry): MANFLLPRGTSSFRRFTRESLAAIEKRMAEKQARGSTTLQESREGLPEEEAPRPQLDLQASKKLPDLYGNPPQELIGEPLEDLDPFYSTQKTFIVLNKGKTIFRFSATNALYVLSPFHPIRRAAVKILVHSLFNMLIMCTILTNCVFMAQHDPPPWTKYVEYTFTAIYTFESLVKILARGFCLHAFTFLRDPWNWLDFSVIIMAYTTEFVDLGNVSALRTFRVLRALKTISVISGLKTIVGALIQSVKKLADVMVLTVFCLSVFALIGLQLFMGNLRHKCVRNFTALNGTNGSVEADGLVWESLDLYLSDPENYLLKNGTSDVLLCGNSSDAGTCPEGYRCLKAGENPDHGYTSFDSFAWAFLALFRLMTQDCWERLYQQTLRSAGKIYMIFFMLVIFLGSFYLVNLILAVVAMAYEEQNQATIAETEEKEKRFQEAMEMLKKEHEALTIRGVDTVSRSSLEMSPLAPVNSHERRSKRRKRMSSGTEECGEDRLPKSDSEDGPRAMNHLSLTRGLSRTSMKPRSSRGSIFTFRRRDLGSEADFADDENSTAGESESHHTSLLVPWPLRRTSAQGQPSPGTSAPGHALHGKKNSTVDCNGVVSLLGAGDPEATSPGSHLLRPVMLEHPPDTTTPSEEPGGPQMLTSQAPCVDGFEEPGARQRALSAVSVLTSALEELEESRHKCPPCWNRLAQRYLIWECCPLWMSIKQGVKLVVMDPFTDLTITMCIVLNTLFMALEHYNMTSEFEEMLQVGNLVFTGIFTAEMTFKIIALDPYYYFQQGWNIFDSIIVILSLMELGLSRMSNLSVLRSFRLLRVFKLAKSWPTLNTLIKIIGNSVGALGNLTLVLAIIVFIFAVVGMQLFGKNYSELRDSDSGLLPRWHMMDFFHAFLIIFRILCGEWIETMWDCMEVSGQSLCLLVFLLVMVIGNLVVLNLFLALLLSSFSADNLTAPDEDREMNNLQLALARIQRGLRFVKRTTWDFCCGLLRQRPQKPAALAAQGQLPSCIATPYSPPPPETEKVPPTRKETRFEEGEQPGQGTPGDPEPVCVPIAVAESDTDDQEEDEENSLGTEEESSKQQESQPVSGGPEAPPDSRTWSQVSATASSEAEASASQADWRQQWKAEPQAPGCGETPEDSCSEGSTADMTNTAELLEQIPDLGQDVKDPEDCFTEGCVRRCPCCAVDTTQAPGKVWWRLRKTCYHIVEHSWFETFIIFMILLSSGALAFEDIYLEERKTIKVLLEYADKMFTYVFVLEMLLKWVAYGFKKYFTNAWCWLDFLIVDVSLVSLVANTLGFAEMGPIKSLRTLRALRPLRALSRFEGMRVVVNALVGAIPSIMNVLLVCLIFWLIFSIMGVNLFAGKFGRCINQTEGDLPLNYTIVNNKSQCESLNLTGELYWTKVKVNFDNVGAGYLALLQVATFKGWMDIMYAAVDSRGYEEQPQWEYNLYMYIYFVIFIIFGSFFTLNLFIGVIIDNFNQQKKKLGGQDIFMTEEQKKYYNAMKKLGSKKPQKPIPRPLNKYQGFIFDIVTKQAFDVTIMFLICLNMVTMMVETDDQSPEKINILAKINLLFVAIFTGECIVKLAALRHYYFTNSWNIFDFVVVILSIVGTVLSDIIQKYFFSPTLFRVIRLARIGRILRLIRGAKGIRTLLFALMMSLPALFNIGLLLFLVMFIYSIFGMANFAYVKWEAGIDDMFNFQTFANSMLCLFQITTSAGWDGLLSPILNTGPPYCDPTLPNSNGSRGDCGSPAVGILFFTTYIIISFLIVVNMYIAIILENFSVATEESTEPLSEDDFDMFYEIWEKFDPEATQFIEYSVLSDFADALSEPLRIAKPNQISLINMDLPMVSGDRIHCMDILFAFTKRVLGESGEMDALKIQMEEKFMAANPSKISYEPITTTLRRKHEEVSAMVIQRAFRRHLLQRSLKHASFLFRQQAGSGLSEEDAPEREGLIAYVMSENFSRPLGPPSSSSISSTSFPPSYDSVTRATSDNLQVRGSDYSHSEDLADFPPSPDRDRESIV

As to `Cc1cc(N2CCN(Cc3cc(F)c(C(=O)NS(=O)(=O)C4CC4)cc3Cl)CC2)ccc1Cl` [Compound Z-164], at hNav1.5, the IC50 came to 6160 nM. Besides, in assay [1] (setting [2]), the “Anti-allodynia Effect (mean, %)” value was 39.7% and the “Response duration (mean, s) the next day (Baseline)” value was found to be 24.327 s. Besides, the “inhibition of SNL-induced cold allodynia (in words)” value in assay [1] (30 mg/kg, 2 hr post oral administration) is recorded as “statistically significant inhibitory effect; also recorded: inhibition of SNL-induced cold allodynia”. In addition, in assay [1] (acetone cold allodynia, baseline before dosing), the “Response duration (mean, s) the first day (Baseline)” value is given as 36.831 s.
